In US20260200924A1, “CANNABINOID RECEPTOR 1 ANTAGONISTS AND USES” (RESEARCH TRIANGLE INSTITUTE, priority 2022, published 2026):

How the values were obtained:
[1] = molecular target: T1, human CB1 (Homo sapiens, UniProt P21554); assay: functional fluorescent calcium mobilization assay, antagonism of CP55,940 (Ke); assay type: cell-based; conditions: for Kd: apparent equilibrium dissociation constant, CHO cells expressing human CB1 along with Gqα16, agonist CP55,940, read-out: Ke hCB1
T1 construct: expressed in transfected cells; host or cells: CHO cells co-expressing Gqα16
Procedure: (§1) A functional fluorescent calcium mobilization was performed in CHO cells expressing human CB1 along with Gqα16. In FIG. 1A, a concentration-dependent increase in fluorescence upon treatment with the CB1 agonist CP55,940 is shown (solid line/triangle markers). […] The EC50 values in the presence and absence of the antagonist are used to calculate antagonist apparent equilibrium dissociation constant (Ke). Suppression of basal signaling in the absence of any stimulation/agonism was measured using the same approach. […] Provided data are representative of a minimum of three experiments and were fitted using non-linear regression analyses in GraphPad Prism.

[2] = molecular target: T1, human CB1; assay: radioligand displacement assay using [3H]CP55940 in CHO cell membrane preparations; assay type: binding; conditions: [3H]CP55940 displacement, CHO cell membranes overexpressing human CB1; read-out: Ki hCB1
Text: (§2) See Ki values above, based on radioligand displacement assay using ^3H-CP55940, a synthetic cannabinoid, (−)-cis-3-[2-hydroxy-4-(1,1-dimethylheptyl)phenyl]-trans-4-(3-hydroxypropyl)cyclohexanol, which is a compound commonly used to study the endocannabinoid system.

[3] = molecular target: human CB2 (Homo sapiens, UniProt P34972); assay: radioligand displacement assay using [3H]CP55940 in CHO cell membrane preparations (CB2, for selectivity); assay type: binding; conditions: ratio of Ki human CB2 / human CB1
Text: as §2

[4] = HLM stability; assay type: in vitro ADME; conditions: for HLM HL: HLM half-life; for microsomal CLint: human, liver microsomes, HLM clearance, read-out: HLM Cl
[5] = molecular target: T1, human CB1; assay: suppression of basal signaling in fluorescent calcium mobilization assay (inverse agonism); assay type: cell-based
Procedure: as §1, with “Gqα16.” for “Gqα16. In FIG. 1A, a concentration-dependent increase in fluorescence upon treatment with the CB1 agonist CP55,940 is shown (solid line/triangle markers).”

[6] = test system: C57BL6 male mice; assay: THC drug discrimination model; assay type: in vivo
Text: Drug discrimination is a behavioral model of the interoceptive effects of a compound. This pharmacologically selective model has high predictive validity, producing a strong correlation between drugs that have sharing discriminative stimulus properties in animals and drugs that humans identify as having similar subjective effects. FIG. 3 provides the results of this study, in which C57BL6 male mice (n=8) were trained to discriminate the reference drug (THC) using a discrimination procedure similar to that described in Wiley et al., Neuropharmacology 75, 145-154 (2013), Van et al., Eur. J. Pharmacol. 615, 102-107, and Wiley et al., J. Pharmacol. Exp. Ther. 354, 328-339 (2015), which are incorporated herein by reference in their entireties. For each session, the percentage of responses on the drug-associated lever and response rate response(s) were calculated.

[7] = test system: male C57BL/6J mice; assay: reversal of diet-induced obesity (DIO) in mice; assay type: in vivo; conditions: oral, 1x daily, 5 days per week
Procedure: Preconditioned male C57BL/6J mice were purchased from the Jackson Laboratories (Bar Harbor, Maine) at 18 weeks of age. These animals were maintained either on ad libitum standard diet (SD) with 10% fat (D12450B) or on 60% high fat diet (HFD; D12492) from Research Diets (New Brunswick, NJ.) Animals were dosed by intragastric gavage once daily Monday-Friday (5 days per week) with either vehicle (0.5% sodium carboxymethylcellulose with 1% NMP and 0.3% Tween 80 in de-ionized water) or Compound 3 suspended in the vehicle. Body weights were recorded at regular intervals. Organs were removed and processed as has been described in the legend of FIG. 4. Biomarkers of efficacy were measured including circulating enzymes, liver weight and liver adiposity as indicated.
Data were reported as mean (FIG. 4A) or mean and range (FIGS. 4B and 4C). […] Hepatic statosis was reduced, as assessed using Oil Red O staining (FIG. 4G), with representative images shown as FIGS. 4H, 4I, and 4J. Significance was calculated using ANOVA with Fisher's test (p<0.05*, 0.01**, 0.001***, 0.0001****).

[8] = molecular target: T2, CB1 receptor (Mus musculus, UniProt P47746); assay: PET target engagement with CB1 radiotracer 11C-JHU75528; assay type: in vivo; conditions: male and female B6 mice, IP pretreatment
T2 construct: from tissue; host or cells: brain of living B6 mice (in vivo PET)
Procedure: FIG. 5A provides a representative image of target specificity of Compound 3 for the CB1 receptor in mice along with quantification. […] The well-characterized CB1 radiotracer ^11C-JHU75528 was used for this purpose. A baseline response for each animal (2 male and 2 female mice) was first established using the vehicle and tracer (~10 MBq in 0.1-0.15 ml volume, tail vein catheter). Following a 48-hr washout, animals were administered Compound 3 via intraperitoneal (IP) injection followed by the probe. PET image acquisition by dynamic scanning was performed for 65 min after the second injection with energy window of 350-700 KeV. […] The PET images were normalized to the standardized uptake value (SUV) unit. Two-tissue compartmental model was applied using the PKIN module in PMOD 4.0 software. See, e.g., FIG. 5B, where quantification of the signal confirmed a blocking effect on cerebral uptake. Compound 3 blocked ^11C-JHU75528 uptake, confirming in vivo activity.

T1 sequence (P21554 whole entry): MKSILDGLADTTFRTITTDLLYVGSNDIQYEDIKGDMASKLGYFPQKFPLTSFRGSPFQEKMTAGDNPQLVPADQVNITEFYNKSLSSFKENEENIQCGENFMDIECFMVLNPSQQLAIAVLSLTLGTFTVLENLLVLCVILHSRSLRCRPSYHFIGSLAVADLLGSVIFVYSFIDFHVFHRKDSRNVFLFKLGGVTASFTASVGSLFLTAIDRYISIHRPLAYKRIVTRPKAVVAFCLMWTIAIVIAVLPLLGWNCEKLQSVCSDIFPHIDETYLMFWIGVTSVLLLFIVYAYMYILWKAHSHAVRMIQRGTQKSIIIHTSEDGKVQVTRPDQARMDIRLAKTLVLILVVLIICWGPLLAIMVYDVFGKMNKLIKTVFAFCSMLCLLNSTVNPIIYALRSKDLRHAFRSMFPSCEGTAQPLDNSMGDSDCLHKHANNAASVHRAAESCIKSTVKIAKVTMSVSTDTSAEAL
human CB2, sequence (P34972 whole entry): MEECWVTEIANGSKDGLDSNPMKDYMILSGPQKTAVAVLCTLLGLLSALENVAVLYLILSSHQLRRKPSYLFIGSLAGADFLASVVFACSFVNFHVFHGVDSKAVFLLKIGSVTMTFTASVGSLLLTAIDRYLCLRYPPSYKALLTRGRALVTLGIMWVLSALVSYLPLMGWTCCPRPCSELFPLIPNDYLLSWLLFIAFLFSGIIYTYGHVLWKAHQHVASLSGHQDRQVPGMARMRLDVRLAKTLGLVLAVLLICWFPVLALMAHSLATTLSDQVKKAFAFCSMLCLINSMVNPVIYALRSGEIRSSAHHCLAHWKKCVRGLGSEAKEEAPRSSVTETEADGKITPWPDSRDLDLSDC
T2 sequence (P47746 whole entry): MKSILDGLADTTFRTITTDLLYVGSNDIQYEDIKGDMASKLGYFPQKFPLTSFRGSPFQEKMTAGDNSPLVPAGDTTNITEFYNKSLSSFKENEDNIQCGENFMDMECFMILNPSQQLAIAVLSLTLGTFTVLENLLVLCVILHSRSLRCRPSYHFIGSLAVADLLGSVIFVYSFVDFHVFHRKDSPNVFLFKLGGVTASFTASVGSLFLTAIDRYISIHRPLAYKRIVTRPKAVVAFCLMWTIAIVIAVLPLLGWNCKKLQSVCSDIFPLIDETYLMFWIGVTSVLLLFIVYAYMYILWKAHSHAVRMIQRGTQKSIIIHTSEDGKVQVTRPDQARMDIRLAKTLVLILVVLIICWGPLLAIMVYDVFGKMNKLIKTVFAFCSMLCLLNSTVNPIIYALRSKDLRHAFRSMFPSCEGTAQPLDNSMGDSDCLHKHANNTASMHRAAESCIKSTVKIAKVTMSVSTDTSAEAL

Structure (SMILES) | Kd [1] [nM] | Ki [2] [nM] | Selectivity Ki (CB2/CB1) [3] | HLM HL [4] [min] | microsomal CLint [4] [µL/min/mg] | also measured
CC1(NC(=O)Cc2ccccc2F)CCN(c2ncnc3c2nc(-c2ccccc2Cl)n3-c2ccc(Cl)cc2)CC1 [Compound 4, N-{1-[8-(2-Chlorophenyl)-9-(4-chlorophenyl)-9H-purin-6-yl]-4-methylpiperidin-4-yl}-2-(2-fluorophenyl)acetamide] | 3.8 | – | – | – | – | –
O=C(Cc1ccc(F)cc1)NC1CCN(c2ncnc3c2nc(-c2ccccc2Cl)n3-c2ccc(Cl)cc2)CC1 [Compound 2, N-{1-[8-(2-Chlorophenyl)-9-(4-chlorophenyl)-9H-purin-6-yl]piperidin-4-yl}-2-(4-fluorophenyl)acetamide] | 1 | 1.4 | 210 | 150 | 8 | –
O=C(Cc1ccc(F)cc1F)NC1CCN(c2ncnc3c2nc(-c2ccccc2Cl)n3-c2ccc(Cl)cc2)CC1 [Compound 3, N-{1-[8-(2-Chlorophenyl)-9-(4-chlorophenyl)-9H-purin-6-yl]piperidin-4-yl}-2-(2,4-difluorophenyl)acetamide] | 0.8 | 1.1 | 510 | 133 | 9 | antagonism: shift of the CP55,940 curve ([1]; pre-incubation with antagonist): rightward shift; effect on basal signaling (inverse agonism) ([5]; absence of any stimulation/agonism): partial inverse agonist; Emax ([5]; read-out: partial suppression of maximal response (basal signaling), % of rimonabant Emax): ~30%; response rates ([6]; compared to controls): not significantly altered; maximum inhibition of THC drug discrimination ([6]; compared with rimonabant): comparable to that of rimonabant; THC drug discrimination ([6]; mice trained on 5.6 mpk THC, 3, 5.6 and 10 mpk antagonist): antagonize; body weight [7]: significantly reduced; circulating transaminase ALT [7]: reduce; circulating transaminase AST [7]: reduce; hepatic cholesterol content [7]: decrease; hepatic steatosis (Oil Red O staining) [7]: reduced; epididymal adipose weight ([7]; normalized to tibia length): significantly reduced; liver weight ([7]; normalized to tibia length): significantly reduced; 11C-JHU75528 cerebral uptake (PET) [8]: blocked
O=C(Cc1ccccc1F)NC1CCN(c2ncnc3c2nc(-c2ccccc2Cl)n3-c2ccc(Cl)cc2)CC1 [Compound 1, N-{1-[8-(2-Chlorophenyl)-9-(4-chlorophenyl)-9H-purin-6-yl]piperidin-4-yl}-2-(2-fluorophenyl)acetamide] | 1 | 1.5 | 110 | 146 | 9 | –
CC1(NC(=O)Cc2ccc(F)cc2)CCN(c2ncnc3c2nc(-c2ccccc2Cl)n3-c2ccc(Cl)cc2)CC1 [Compound 5, N-{1-[8-(2-Chlorophenyl)-9-(4-chlorophenyl)-9H-purin-6-yl]-4-methylpiperidin-4-yl}-2-(4-fluorophenyl)acetamide] | 1.8 | – | – | – | – | –
